ChEMBL document CHEMBL4229478, “Synthesis, Characterization, and Biological Evaluation of a Porphyrin-Based Photosensitizer and Its Isomer for Effective Photodynamic Therapy against Breast Cancer” (J Med Chem, 2018)
Activity calls are given as the source filed them. No cut-off for these calls is given here.

What was measured:
[1] = Induction of singlet oxygen generation in cell free condition upon 635 nm semiconductor laser light irradiation by singlet oxygen sensor green dye based fluorescence spectrophotometeric analysis; format: functional
4T1 [2] = test: Phototoxicity against mouse 4T1 cells assessed as cell viability at 5 uM preincubated for 4 hrs followed by 0.5 to 2 J/cm2 light irradiation and measured after 24 hrs by MTT assay; format: functional, cell-based
MDA-MB-231 [3] = test: Phototoxicity against human MDA-MB-231 cells assessed as cell viability at 5 uM preincubated for 4 hrs followed by 0.5 to 2 J/cm2 light irradiation and measured after 24 hrs by MTT assay; format: functional, cell-based
MCF7 = test: Phototoxicity against human MCF7 cells assessed as cell viability at 5 uM preincubated for 4 hrs followed by 0.5 to 2 J/cm2 light irradiation and measured after 24 hrs by MTT assay; format: functional, cell-based
[4] = Dark toxicity against mouse 4T1 cells assessed as cell viability at 5 uM after 24 hrs by MTT assay; format: cell-based; conditions: 4t1, 24 h
[5] = Dark toxicity against human MDA-MB-231 cells assessed as cell viability at 5 uM after 24 hrs by MTT assay; format: cell-based; conditions: mda-mb-231, 24 h
[6] = Dark toxicity against human MCF7 cells assessed as cell viability at 5 uM after 24 hrs by MTT assay; format: cell-based; conditions: mcf7, 24 h
[7] = Selectivity index, ratio of dark toxicity against human MDA-MB-231 cells at 5 uM to phototoxicity against human MDA-MB-231 cells at 5 uM; format: cell-based; conditions: read-out: Selectivity Index
[8] = Selectivity index, ratio of dark toxicity against mouse 4T1 cells at 5 uM to phototoxicity against mouse 4T1 cells at 5 uM; format: cell-based; conditions: read-out: Selectivity Index
[9] = Selectivity index, ratio of dark toxicity against human MCF7 at 5 uM cells to phototoxicity against human MCF7 cells at 5 uM; format: cell-based; conditions: read-out: Selectivity Index
[10] = Drug uptake in human MDA-MB-231 cells up to 10 uM after 4 hrs by flow cytometric analysis; format: ADME, cell-based; conditions: mda-mb-231, 4 h
[11] = Drug uptake in human MDA-MB-231 cells at 5 to 10 uM after 4 hrs by fluorescence microscopic analysis; format: ADME, cell-based; conditions: mda-mb-231, 4 h
[12] = Drug uptake in kidney of BALB/c mouse xenografted with mouse 4T1 cells at 10 mg/kg, iv measured at 12 hrs post injection by IVIS spectrum imaging; format: ADME, organism-based; conditions: in vivo
[13] = Drug uptake in lung of BALB/c mouse xenografted with mouse 4T1 cells at 10 mg/kg, iv measured at 12 hrs post injection by IVIS spectrum imaging; format: ADME, organism-based; conditions: in vivo
[14] = Drug uptake in spleen of BALB/c mouse xenografted with mouse 4T1 cells at 10 mg/kg, iv measured at 12 hrs post injection by IVIS spectrum imaging; format: ADME, organism-based; conditions: in vivo
[15] = Drug uptake in heart of BALB/c mouse xenografted with mouse 4T1 cells at 10 mg/kg, iv measured at 12 hrs post injection by IVIS spectrum imaging; format: ADME, organism-based; conditions: in vivo
[16] = Drug uptake in mitochondria of human MDA-MB-231 cells after 4 hrs by Mito tracker green-based confocal laser scanning microscopic analysis; format: ADME; conditions: mda-mb-231, 4 h
[17] = Drug uptake in tumor of BALB/c mouse xenografted with mouse 4T1 cells at 10 mg/kg, iv measured at 12 hrs post injection by IVIS spectrum imaging; format: ADME, organism-based, Neoplasm; conditions: in vivo
MDA-MB-231 [18] = test: Induction of ROS generation in human MDA-MB-231 cells incubated with DCF-DA probe for 30 mins by flow cytometric analysis (reference value: 4.38%); format: cell-based; conditions: mda-mb-231, 0.5 h
MDA-MB-231 [19] = test: Induction of ROS generation in human MDA-MB-231 cells incubated with DCF-DA probe for 30 mins followed by 2 J/cm2 light irradiation and measured after 1 hr by flow cytometric analysis (reference value: 4.38%); format: functional
[20] = Drug uptake in tumor of BALB/c mouse xenografted with mouse 4T1 cells at 10 mg/kg, iv measured up to 3 to 24 hrs post injection by fluorescence assay; format: ADME, organism-based, Neoplasm; conditions: in vivo
MDA-MB-231 [21] = test: Induction of ROS generation in human MDA-MB-231 cells incubated with DCF-DA probe for 30 mins prior to ROS scavenger NAC addition 1 hr before 2 J/cm2 light irradiation and measured after 1 hr post irradiation by flow cytometric analysis; format: functional, cell-based
[22] = Tmax in tumor of BALB/c mouse xenografted with mouse 4T1 cells at 10 mg/kg, iv measured after […] by fluorescence assay; format: ADME, organism-based, Neoplasm
MDA-MB-231 [23] = test: Induction of apoptosis in human MDA-MB-231 cells assessed as early apoptotic cells after 24 hrs by Annexin-V FITC/propidium iodide staining based flow cytometric analysis (reference value: 1.22%); format: cell-based; conditions: mda-mb-231, 24 h
MDA-MB-231 [24] = test: Induction of apoptosis in human MDA-MB-231 cells assessed as late apoptotic cells after 24 hrs by Annexin-V FITC/propidium iodide staining based flow cytometric analysis (reference value: 1.28%); format: cell-based; conditions: mda-mb-231, 24 h
MDA-MB-231 [25] = test: Induction of apoptosis in human MDA-MB-231 cells assessed as necrotic cells after 24 hrs by Annexin-V FITC/propidium iodide staining based flow cytometric analysis (reference value: 4.24%); format: cell-based; conditions: mda-mb-231, 24 h
[26] = Induction of apoptosis in human MDA-MB-231 cells assessed as viable cells after 24 hrs by Annexin-V FITC/propidium iodide staining based flow cytometric analysis (reference value: 93.27%); format: cell-based; conditions: read-out: Activity
MDA-MB-231 [27] = test: Induction of apoptosis in human MDA-MB-231 cells assessed as early apoptotic cells after 24 hrs upon light irradiation by Annexin-V FITC/propidium iodide staining based flow cytometric analysis (reference value: 1.22%); format: functional
MDA-MB-231 [28] = test: Induction of apoptosis in human MDA-MB-231 cells assessed as late apoptotic cells after 24 hrs upon light irradiation by Annexin-V FITC/propidium iodide staining based flow cytometric analysis (reference value: 1.28%); format: functional
MDA-MB-231 [29] = test: Induction of apoptosis in human MDA-MB-231 cells assessed as necrotic cells after 24 hrs upon light irradiation by Annexin-V FITC/propidium iodide staining based flow cytometric analysis (reference value: 4.24%); format: functional
MDA-MB-231 [30] = test: Induction of apoptosis in human MDA-MB-231 cells assessed as viable cells after 24 hrs upon light irradiation by Annexin-V FITC/propidium iodide staining based flow cytometric analysis (reference value: 93.27%); format: functional
4T1 [31] = test: Antitumor activity against mouse 4T1 cells xenografted in BALB/c mouse assessed as tumor growth inhibition at 4 mg/kg, iv pretreated for 24 hrs followed by 50 J/cm2 light irradiation and measured at day 22 post last dose; format: functional, organism-based
4T1 [32] = test: Induction of apoptosis in mouse 4T1 cells xenografted in BALB/c mouse at 4 mg/kg, iv pretreated for 24 hrs followed by 50 J/cm2 light irradiation by TUNEL assay; format: functional, organism-based
Mus musculus [33] = test: Toxicity in BALB/c mouse xenografted with mouse 4T1 cells assessed as effect on body weight at 4 mg/kg, iv measured at day 22 post last dose; format: organism-based; conditions: in vivo
Mus musculus [34] = test: Toxicity in BALB/c mouse xenografted with mouse 4T1 cells assessed as effect on body weight at 4 mg/kg, iv pre-tretaed for 24 hrs followed by 50 J/cm2 light irradiation and measured at day 22 post dose; format: organism-based; conditions: in vivo
Mus musculus [35] = test: Hepatotoxicity in BALB/c mouse xenografted with mouse 4T1 cells assessed as pathological changes in liver at 4 mg/kg, iv pre-tretaed for 24 hrs followed by 50 J/cm2 light irradiation and measured at day 22 post dose by hematoxylin and eosin staining based light microscopic analysis; format: toxicity, organism-based; conditions: in vivo
Mus musculus [36] = test: Nephrotoxicity in BALB/c mouse xenografted with mouse 4T1 cells assessed as pathological changes in kidney at 4 mg/kg, iv pre-tretaed for 24 hrs followed by 50 J/cm2 light irradiation and measured at day 22 post dose by hematoxylin and eosin staining based light microscopic analysis; format: toxicity, organism-based; conditions: in vivo
Mus musculus [37] = test: Toxicity in BALB/c mouse xenografted with mouse 4T1 cells assessed as pathological changes in spleen at 4 mg/kg, iv pre-tretaed for 24 hrs followed by 50 J/cm2 light irradiation and measured at day 22 post dose by hematoxylin and eosin staining based light microscopic analysis; format: organism-based; conditions: in vivo
Mus musculus [38] = test: Toxicity in BALB/c mouse xenografted with mouse 4T1 cells assessed as pathological changes in lung at 4 mg/kg, iv pre-tretaed for 24 hrs followed by 50 J/cm2 light irradiation and measured at day 22 post dose by hematoxylin and eosin staining based light microscopic analysis; format: organism-based; conditions: in vivo

In the case of COC(C)C1=C(C)c2cc3[nH]c(cc4nc(cc5[nH]c(cc1n2)c(C)c5CCC(=O)O)C(CCC(=O)O)=C4C)c(C)c3C(C)O (centres undefined), the Activity [1] is reported as “Dose-dependent effect”, the Activity (4T1 [2]) is reported as “Active” and the Activity (MDA-MB-231 [3]) is reported as “Active”. The Activity (MCF7) was “Active”, the Activity [4] was “Non-Toxic” and the Activity [5] was “Non-Toxic”. The Activity [6] was “Non-Toxic”, the selectivity ratio at 5 µM [7] was 18.8 and the selectivity ratio at 5 µM [8] was 12. The selectivity ratio at 5 µM [9] was 16.8, the Drug uptake [10] was “Not Active” and the Drug uptake [11] was “Not Active”. The Drug uptake [12] was “Not Active”, the Drug uptake [13] was “Not Active” and the Drug uptake [14] was “Not Active”. For the same compound, the Drug uptake [15] was “Not Active”, the Drug uptake [16] was “Active” and the Drug uptake [17] was “Active”. The Activity (MDA-MB-231 [18]) was 5.7%, the Activity (MDA-MB-231 [19]) was 25.13% and the Drug uptake [20] was “Active”. The Activity (MDA-MB-231 [21]) was “inactive”, the Tmax [22] was 12 h and the Activity (MDA-MB-231 [23]) was 1.99%. For the same compound, the Activity (MDA-MB-231 [24]) was 1.76%, the Activity (MDA-MB-231 [25]) was 4.02% and the viability at 24 h [26] was 92.2%. The Activity (MDA-MB-231 [27]) was 3.91%, the Activity (MDA-MB-231 [28]) was 30.5% and the Activity (MDA-MB-231 [29]) was 6.83%. For the same compound, the Activity (MDA-MB-231 [30]) was 58.77%, the TGI (4T1 [31]) was “inactive” and the Activity (4T1 [32]) was “Active”. The Activity (Mus musculus [33]) was “Non-Toxic”, the Activity (Mus musculus [34]) was “Non-Toxic” and the Activity (Mus musculus [35]) was “Non-Toxic”. The Activity (Mus musculus [36]) was “Non-Toxic”, the Activity (Mus musculus [37]) was “Non-Toxic” and the Activity (Mus musculus [38]) was “Non-Toxic”.
